Data: patent publication US20210205341A1, “COMPOSITIONS COMPRISING HUMAN MILK OLIGOSACCHARIDES FOR USE IN INFANTS OR YOUNG CHILDREN TO PREVENT OR TREAT A HEALTH DISORDER BY INCREASING GLP-1 SECRETION” (NESTEC S.A., priority 2016, published 2021)

What was measured:
GLP-1 secretion = experiment: GLP-1 plasma concentration in IUGR rats fed HMO-supplemented regimen; assay type: in vivo, rat
Text: A wide group of pregnant female rats were bought from Charles River laboratories. They were submitted to food restriction of 60% during the last 10 days of gestation.
Immediately after birth (d=1), the born rat pups—subjects of the experiment—were split into several groups: • IUGR rats (control) (n=20) • IUGR rats+HMO (test groups): During the experiment, they were reared by their mothers for 21 days and supplemented with HMOs (2FL or LNnT). At weaning, they were fed a diet supplemented with the same HMOs, see details below. There were 2 different groups: • IUGR rats+2FL (n=10) • IUGR rats+LNnT (n=10)
IUGR (intrauterine growth restricted) rats were chosen as control model since they have a higher appetite to compensate their growth retardation, and therefore they may not eat in a healthy way with standard diets (e.g. they may have a higher total weight and/or adipose mass increase over their lean mass increase) which may lead to the development and programming for future health conditions including later in life obesity or future related comorbidities like diabetes.
All rat pups were fed from birth (d=1) up to 57 days (d=57) based on the following protocol: • day 1-day 6: all groups of rats were nursed by dam (mothers' milk only) • day 7-day 21: all rats were nursed by dam (mothers' milk only). But in the test groups, 3 g/kg body weight of a HMO were also administered by gavage: 2FL: 3 g/kg body weight, for the group IUGR rats+2FL LNnT: 3 g/kg body weight, for the group IUGR rats+LNnT • day 22-day 57: rats were separated from their mothers and they had the following regimen: • IUGR rats (control): fed with a control diet (composition detailed in table 2), no HMO supplementation
IUGR rats+HMO (test groups): fed with the same diet but supplemented with 4.5 wt % of a HMO (maltodextrin in the total control diet was replaced by the respective tested HMO):
4.5 wt % of 2FL for the group IUGR rats+2FL
4.5 wt % of LNnT for the group IUGR rats+LNnT
GLP-1 secretion in the rats was assessed by determination of its circulating concentration in plasma.

NCI-H716 cells = experiment: Calcium assay in NCI-H716 cells (fluorescent calcium sensitive dye); assay type: cell-based, human; details: for significance of increase in fluorescence ratio: 5 mg/mL, 10 mg/mL and 20 mg/mL, p<0.05 vs negative control, two-sided t-test; for concentration dependence of calcium response: 1-20 mg/mL; for fluorescence ratio (intracellular calcium response): all tested concentrations: 1, 5, 10 and 20 mg/mL, vs buffer negative control
Text: NCI-H716 is a cell line derived from human L-cells, the enteroendocrine cells that secrete GLP-1, and it is often used as a model of GLP-1 secretion. Unstimulated NCI-H716 cells secrete a basal level of GLP-1 and activation of the cells leads to dose-dependent increase in GLP-1 secretion. Activation of the NCI-H716 cells and subsequent release of GLP-1 can be triggered by nutrients such as palmitic acid, oleic acid, and meat hydrolysate, Gastrin Releasing Peptide (GRP), the cholinergic molecule Carbachol, bitter compounds such as denatonium, ginsenosides and other molecules.
Activation of NCI-H716 cells by ionomycin, GRP, denatonium, or ginsenosides leads to increased intracellular calcium. Elevation of intracellular calcium is therefore a marker of cell activation and in NCI-H716 cells it could be considered as an indicator of GLP-1 release.
A calcium assay was used to determine if NCI-H716 cells respond to human milk oligosaccharides (sialylated oligosaccharides 3SL and 6SL) or components/precursors thereof (lactose and sialic acid). In this assay, cultured NCI-H716 cells were loaded with a fluorescent calcium sensitive dye then stimulated with the HMOs. The response to the stimulus was measured by change in fluorescence ratio in consequence of intracellular calcium increase. The tested HMOs were 3′-sialyllactose (3SL) and 6′-sialyllactose (6SL). They were tested individually.
GRP (Gastrin Releasing Peptide): positive control
Tested HMOs concentrations: 1 mg/mL, 5 mg/mL, 10 mg/mL and 20 mg/mL
Tested lactose and sialic acid concentrations: 5.5 mg/mL and 4.72 mg/mL respectively (correspond to the amounts contained in 10 mg/mL of 3SL, in order to make a suitable comparison with 10 mg/mL of 3SL)

[1] = d=57, 3 g/kg by gavage day 7-21, then diet with 4.5 wt % HMO day 22-57, FIG. 1A partial results
[2] = d=57, 3 g/kg by gavage day 7-21, then diet with 4.5 wt % HMO day 22-57, FIG. 1B final results

Compound | GLP-1 plasma concentration increase in comparison with the control group (GLP-1 secretion; [1]) [%] | GLP-1 plasma concentration increase in comparison with the control group (GLP-1 secretion; [2]) [%] | significance of increase in fluorescence ratio (NCI-H716 cells) | concentration dependence of calcium response (NCI-H716 cells) | fluorescence ratio (intracellular calcium response) (NCI-H716 cells) | also measured
2′-fucosyllactose [2FL] | 200 | 164 | – | – | – | –
CC(=O)N[C@H]1[C@H](O[C@H]2[C@@H](O)[C@@H](CO)O[C@@H](O[C@H]3[C@H](O)[C@@H](O)C(O)O[C@@H]3CO)[C@@H]2O)O[C@H](CO)[C@@H](O[C@@H]2O[C@H](CO)[C@H](O)[C@H](O)[C@H]2O)[C@@H]1O (mixture of isomers) [LNnT, lacto-N-neotetraose] | 43 | 13 | – | – | – | –
CC(=O)N[C@H]1[C@H]([C@H](O)[C@H](O)CO)O[C@@](O[C@H]2[C@@H](O)[C@@H](CO)O[C@@H](O[C@H]3[C@H](O)[C@@H](O)C(O)O[C@@H]3CO)[C@@H]2O)(C(=O)O)C[C@@H]1O (stereo partly drawn) [3SL, (6R)-5-Acetamido-3,5-dideoxy-6-[(1R,2R)-1,2,3-trihydroxypropyl]-β-L-threo-hex-2-ulopyranonosyl-(2->3)-β-D-galactopyranosyl-(1->4)-D-glucopyranose] | – | – | significant | clear concentration dependent calcium response | enhanced | –
CC(=O)N[C@H]1[C@H]([C@H](O)[C@H](O)CO)O[C@@](OC[C@H]2O[C@@H](O[C@H]3[C@H](O)[C@@H](O)C(O)O[C@@H]3CO)[C@H](O)[C@@H](O)[C@H]2O)(C(=O)O)C[C@@H]1O (stereo partly drawn) [6SL, (6R)-5-Acetamido-3,5-dideoxy-6-[(1R,2R)-1,2,3-trihydroxypropyl]-β-L-threo-hex-2-ulopyranonosyl-(2->6)-β-D-galactopyranosyl-(1->4)-D-glucopyranose] | – | – | significant | clear concentration dependent calcium response | enhanced | –
OC[C@H]1O[C@@H](O[C@H]2[C@H](O)[C@@H](O)C(O)O[C@@H]2CO)[C@H](O)[C@@H](O)[C@H]1O (stereo partly drawn) [Lactose, reference compound] | – | – | – | – | – | activation of NCI-H716 cells (calcium response) (NCI-H716 cells; 5.5 mg/mL (amount contained in 10 mg/mL 3SL)): did not activate the cells
CC(=O)N[C@H]1[C@H]([C@H](O)[C@H](O)CO)OC(O)(C(=O)O)C[C@@H]1O (stereo partly drawn) [sialic acid, N-acetylneuraminic acid, reference compound] | – | – | – | – | – | activation of NCI-H716 cells (calcium response) (NCI-H716 cells; 4.72 mg/mL (amount contained in 10 mg/mL 3SL)): did not activate the cells
